{
  "source": "patent US20180193294A1",
  "about": "“Dehydroabietic acid (DHAA) derivatives for use as ion channel openers” (priority 2015, published 2018)",
  "target": "3R Shaker K channel (Drosophila melanogaster, UniProt P08510, A359R/M356R)",
  "sequence (P08510 whole entry M356R/A359R)": "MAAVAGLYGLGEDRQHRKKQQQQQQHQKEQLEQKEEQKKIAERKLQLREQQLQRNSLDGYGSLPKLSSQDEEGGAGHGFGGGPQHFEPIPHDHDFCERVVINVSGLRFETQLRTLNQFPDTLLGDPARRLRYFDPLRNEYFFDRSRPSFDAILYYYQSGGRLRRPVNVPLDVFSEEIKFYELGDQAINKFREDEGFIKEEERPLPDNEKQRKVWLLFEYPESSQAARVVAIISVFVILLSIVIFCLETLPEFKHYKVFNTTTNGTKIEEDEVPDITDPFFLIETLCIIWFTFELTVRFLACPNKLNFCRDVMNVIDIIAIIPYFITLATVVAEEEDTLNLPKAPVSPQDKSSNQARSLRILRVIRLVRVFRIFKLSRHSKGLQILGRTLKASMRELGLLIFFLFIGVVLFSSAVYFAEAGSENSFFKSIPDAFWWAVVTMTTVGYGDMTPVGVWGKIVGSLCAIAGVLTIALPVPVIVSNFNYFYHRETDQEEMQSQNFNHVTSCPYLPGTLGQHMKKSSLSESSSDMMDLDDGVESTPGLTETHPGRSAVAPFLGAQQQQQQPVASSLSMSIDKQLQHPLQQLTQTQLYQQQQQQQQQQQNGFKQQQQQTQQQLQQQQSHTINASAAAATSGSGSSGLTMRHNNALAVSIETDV",
  "assay": "G(V) shift of 3R Shaker K channel stably expressed in CHO-K1 cells, whole-cell patch clamp",
  "assay_type": "cell-based",
  "conditions": "10 μM, pH 7.4",
  "source_text": "All animal experiments were approved by the local Animal Care and Use Committee and followed international guidelines. A modified Shaker H4 channel^30, with removed N-type inactivation (ShH4IR)^31, here called the wild type (WT) channel, was expressed in oocytes. In addition, a modified 3R Shaker K channel where two introduced positive charged arginines (M356R and A359R) in addition to one native arginine (R362) makes the channel more sensitive to DHA^16, was expressed in oocytes and in a CHO—K1 stable cell line.\nFor the modified 3R Shaker K channel a stable cell line was generated. The construct was cloned into the pcDNA3 vector. CHO—K1 cells were plated into T75 culture flasks and grown without penicillin/streptomycin. […]\nwhere IK is the average current from the steady-state phase at the end of each 100-ms pulse, V is the membrane voltage, and Vrev is the reversal potential for K^+, (set to −80 mV for the oocytes, and calculated to be −89 mV for the CHO—K1 cells).\nwhere A is amplitude of the curve, V is the absolute membrane voltage, V1/2 is the midpoint, s is the slope and n is an exponent set to 4^17. The compound-induced G(V) shift was determined at the 10% level of the maximum conductance in control solution^17. The compound-induced G(V) shift in CHO—K1 was quantified by subtracting the control V1/2 from the compound V1/2 when n was set to 1.",
  "data": [
    {"smiles": "CC(C)c1ccc2c(c1)C(C(=O)O)CC1[C@](C)(C(=O)O)CCC[C@]21C", "note": "(stereo partly shown) [Wu35]", "values": [
      {"measurement": "G(V) shift in CHO cells", "result": "very poor shifter"}
    ]}
  ]
}
